In publication PMC9503608, “An Insight into Symmetrical Cyanine Dyes as Promising Selective Antiproliferative Agents in Caco-2 Colorectal Cancer Cells” (Molecules, 2022):
Like-named read-outs stand apart in the source and are kept apart here.

How the values were obtained:
[1] = MTT cell viability assay, NHDF; assay type: cell-based, human; conditions: human, normal human dermal fibroblasts (NHDF), single concentration of 10 µM, 72 h, mean ± SD; read-out: cell viability percentage in relation with control, NHDF
Procedure: (§1) Caco-2, MCF-7, PC-3, and NHDF cell lines were obtained from the American Type Culture Collection (ATCC) and maintained in 75 cm^2 culture flasks in a humidified atmosphere at 37 °C with 5% carbon dioxide using a LEEC Culture Safe Precision CO2 Incubator. The culture media was renewed every two to three days. The NHDF cell line was cultured in Roswell Park Memorial Institute (RPMI) medium supplemented with 10% of inactivated fetal bovine serum (FBS), 2 mM of L-glutamine, 10 mM of 4-(2-hydroxyethyl)-1-piperazineethanesulfonic acid (HEPES), 1 mM of sodium pyruvate, and 1% of antibiotic/antimycotic mixture (Ab; 10,000 U/mL of penicillin G, […] of streptomycin, and 25 µg/mL of amphotericin B). The PC-3 cell line was also cultured in RPMI 1640 medium supplemented with 10% inactivated FBS and 1% of an antibiotic mixture (Sp; 10,000 U/mL of penicillin G and […] of streptomycin). The Caco-2 and MCF-7 cell lines were grown in Dulbecco’s Modified Eagle Medium (DMEM). Caco-2 was supplemented with 20% of inactivated FBS and 1% of Sp. On the other hand, the MCF-7 medium was complemented with 10% of inactivated FBS and 1% of Ab. All manipulations were performed in a Labculture Class II A2 Biological Safety Cabinet.
(§2) After the near confluency of cultures, cells were detached with a solution of 0.125 g/L trypsin and 0.02 g/L ethylenediaminetetracetic acid (EDTA), counted using the trypan blue method, resuspended, and seeded in 96-well culture plates (100 µL, 2 × 10^4 cells/mL). Following 48 h of adherence, cells were treated with the test solutions and incubated for 72 h. This incubation, as well as the solution manipulations, were performed in an environment protected from light. After the incubation, the medium was replaced with a fresh incomplete culture medium (without FBS and Ab or Sp) and MTT solution (5 mg/mL in phosphate buffer saline (PBS)). After additional incubation for 4 h, the MTT medium was removed, formazan crystals were dissolved in DMSO, and the optical density of each well was measured at 570 nm using a microplate spectrophotometer Bio-Rad xMark. Untreated cells were used as a negative control and 5-FU as the positive control. The results were expressed as the relative cell proliferation relative to the negative control cells. […] To determine the IC50 values, Caco-2, MCF-7, PC-3, and NHDF cells were exposed to increasing concentrations between 0.001 and 100 μM.

[2] = test system: normal human dermal fibroblasts (NHDF); experiment: MTT cell viability assay, NHDF; assay type: cell-based; conditions: Homo sapiens, NHDF, 72 h of incubation, MTT, protected from light
Procedure: as §1, §2

[3] = MTT cell viability assay, Caco-2; assay type: cell-based, human; conditions: human, 72 h, read-out: SI Caco-2 (selectivity index, cancer versus NHDF)
Procedure: as §1, §2

[4] = test system: Caco-2 colorectal adenocarcinoma cell line; experiment: MTT cell viability assay, Caco-2; assay type: cell-based, human; conditions: for IC50: 72 h of incubation, MTT, protected from light; for viability at 10 µM: read-out: cell viability percentage in relation with control, Caco-2
Procedure: as §1, §2

[5] = test system: MCF-7 breast adenocarcinoma cell line; experiment: MTT cell viability assay, MCF-7; assay type: cell-based, human; conditions: Homo sapiens; for viability at 10 µM: MCF7, 72 h, read-out: cell viability percentage in relation with control, MCF-7
Procedure: as §1, §2

[6] = test system: PC-3 prostate adenocarcinoma cell line; experiment: MTT cell viability assay, PC-3; assay type: cell-based, human; conditions: for viability at 10 µM: read-out: cell viability percentage in relation with control, PC-3
Procedure: as §1, §2

[7] = test system: Caco-2 cells; experiment: Apoptosis by propidium iodide staining and flow cytometry; assay type: cell-based, human
Procedure: (§3) The apoptosis occurrence and influence of the dye 12 on the cell cycle were evaluated using propidium iodide (PI) staining and flow cytometry, as described by Riccardi and Nicolleti. After the near confluency of the culture, trypsinisation, and counting, Caco-2 cells were seeded (2 mL, 3 × 10^4 cells/mL) in 6-well plates. After 48 h of adherence, the cells were treated with the test solutions (3 mL and 5 mL for negative control) and incubated for 72 h. Untreated cells were used as the negative control, and sorbitol and 5-FU [56] were used as positive controls for the apoptosis and cell cycle distribution studies, respectively. After incubation, the supernatant was collected and the cells were washed with PBS and combined with the cells harvested using the trypsin treatment. This cell suspension was maintained on ice and centrifugated, and then the pellet was resuspended in 0.5 mL of PBS. The cells were fixed by adding 4.5 mL of 70% ethanol cooled at −20 °C and were stored at the same temperature. For the cytometry analysis, PBS was added to the fixed cells before centrifugation, and then the ethanolic supernatant was removed. The pellet was resuspended in 0.5 mL of PBS and 0.5 mL of DNA extraction (192 mL of 0.2 M sodium phosphate and 8 mL of […], pH 7.8) was added. After incubation for 5 min, the cells were centrifuged, the supernatant was removed, and the pellet resuspended in 0.3 mL of staining solution (20 µg/mL of PI and 0.2 mg/mL of DNase-free RNase in PBS). Using a FACSCalibur flow cytometer and the 488 nm laser line, a minimum of 20,000 events were recorded. Acquisition and apoptosis analysis was performed using BD CellQuestTM Pro 4.0.2 Software. Cell cycle analysis was performed with ModFit LT 5.0.9 software. To exclude debris and necrotic cells, events with a lower diameter (forward scatter; FCS) and reduced PI fluorescence (FL3) than the hypodiploid apoptotic cells were eliminated. Two independent experiments were performed.

[8] = test system: Caco-2 cells; experiment: Cell cycle distribution by propidium iodide staining and flow cytometry; assay type: cell-based, human; conditions: dye 12 and 5-FU 10 µM 72 h, sorbitol 600 mM 24 h, versus untreated cells
Procedure: as §3

[9] = test system: Caco-2 cells; experiment: Morphological analysis by inverted microscopy; assay type: cell-based, human; conditions: 10 µM, 72 h, 20 or 40× magnification, versus untreated cells
Procedure: After the near confluency of the culture, trypsinisation, and counting, Caco-2 cells were seeded (3 mL; 3 × 10^4 cells/mL) in 35 mm cell culture dishes with treatment for the tissue culture. Following 48 h of adherence, the cells were treated with the test solutions and incubated for 72 h in an environment protected from light. At every 24 h, cellular morphology was verified in an Olympus CKX41 SF inverted microscope with a 10, 20, or 40× objective, and the analysis was based on comparing the cells with and without treatment. Cell imaging was captured using a DC6V Olympus digital camera coupled to the microscope.

[10] = Homo sapiens, Caco-2, 72 h, single concentration of 10 µM, 72 h, mean ± SD
[11] = single concentration of 10 µM, 72 h, mean ± SD
[12] = Homo sapiens, 72 h, single concentration of 10 µM, 72 h, mean ± SD

Compound	viability at 72 h, 10 µM [1]	IC50 ([2]; 72 h)	selectivity ratio at 72 h ([3]; Caco-2, Caco-2 versus NHDF)	IC50 ([4]; Homo sapiens, Caco-2, 72 h)	viability at 10 µM [4, 10]	viability at 10 µM [5, 11]	viability at 10 µM [6, 12]	effect on cell cycle distribution [8]	melting point	further results
O=c1[nH]cc(F)c(=O)[nH]1 [Dye 5-FU, 5-fluorouracil, reference compound]	12.7 ± 3.99%	6170 nM	3.6	1700 nM	25.7 ± 1.02%	16 ± 1.8%	11.9 ± 2.1%	significant increase in the rate of Caco-2 cells in the S-phase		IC50 ([5]; MCF7, 72 h of incubation, MTT, protected from light): 1240 nM; IC50 ([6]; Homo sapiens, 72 h of incubation, MTT, protected from light): 1720 nM; SI PC-3 (selectivity index, cancer versus NHDF) ([6]; PC-3 versus NHDF, 72 h): 3.6; increase in apoptotic cells relative to untreated cells ([7]; Caco-2, 10 µM, 72 h): approximately 10%; morphological changes of Caco-2 cells [9]: cell size increase with an enlarged and well-defined nucleus
CCCCCN1C(=Cc2sc3ccccc3[n+]2CCCCC)Sc2ccccc21.[I-] [Dye 10, 3-Pentyl-2-((3-pentylbenzo[d]thiazol-2(3H)-ylidene)methyl)benzo[d]thiazol-3-ium iodide]	0.1 ± 0.36%	670 nM	0.6	1240 nM	1.02 ± 0.42%	0.87 ± 2.53%	0.97 ± 0.26%		164 to 166 °C	IC50 [4]: 1000 nM; SI Caco-2 (selectivity index, cancer versus NHDF) ([4]; Caco-2 versus NHDF, 72 h): 0.7
OC[C@@H](O)[C@@H](O)[C@H](O)[C@@H](O)CO [sorbitol, reference compound]								did not significantly affect the Caco-2 cell cycle		apoptosis induced (percent of cells) ([7]; Caco-2, dye 12 10 µM 72 h, sorbitol 600 mM 24 h): about 28%
CCN1C(=Cc2sc3ccccc3[n+]2CC)Sc2ccccc21.[O-][Cl+3]([O-])([O-])[O-] [Dye 7, 3-Ethyl-2-((3-ethylbenzo[d]thiazol-2(3H)-ylidene)methyl)benzo[d]thiazol-3-ium perchlorate]	3.34 ± 0.14%								296 to 297 °C	IC50 [2]: 830 nM; selectivity ratio at 72 h ([3]; Caco-2 versus NHDF): 3; viability at 10 µM ([4]; Homo sapiens, Caco-2, 72 h): 3.11 ± 0.94%; IC50 ([4]; Homo sapiens, Caco-2): 280 nM; viability at 10 µM [5]: 0.96 ± 0.61%; viability at 10 µM ([6]; Homo sapiens, 72 h): 1.19 ± 0.29%
C(=C1Sc2ccccc2N1Cc1ccccc1)c1sc2ccccc2[n+]1Cc1ccccc1.[I-] [Dye 8, 3-Benzyl-2-((3-benzylbenzo[d]thiazol-2(3H)-ylidene)methyl)benzo[d]thiazol-3-ium iodide]	2.04 ± 0.39%	930 nM	1	950 nM	0.32 ± 0.03%	1.47 ± 1.13%	1.16 ± 0.49%		249 to 250 °C	
CN1C(=Cc2ccc3ccccc3[n+]2C)C=Cc2ccccc21.[I-] [Dye 13, 1-Methyl-2-((1-methylquinolin-2(1H)-ylidene)methyl)quinolin-1-ium iodide]	8.37 ± 2.26%	590 nM	1	580 nM	7.81 ± 0.51%	11.8 ± 1.89%	7.42 ± 1.27%		240 to 241 °C	
